These results are taken from patent US9409893B2, “Heteroaryl derivatives and uses thereof” (Jacobus Pharmaceutical Company, Inc., priority 2012, dated 2016).

Each structure is given as a SMILES string. Structures can show the parent of a compound that is named as a salt. Where two headings read alike, the source gives them in different places.

For assay [1], the system named is Plasmodium berghei (KBG-173 strain). The assay is described as follows: Plasmodium berghei assay in vivo (modified Thompson Test) in CD-1 mice. To be noted: for Average Days Survival: bid on days 3, 4 and 5, 31 day experiment. As for the experimental part:
In vivo antimalarial activity was tested in male or female Charles River CD-1 mice that were 4-5 weeks old and weighed 20-25 g They were housed in groups of 3 or 4 in standard plastic cages with wire tops, Bed-o-Cob® bedding, 12 hr/day of light, and maintained at 75° F. They were fed a standard Ralston Purina mouse chow and the cages and bottles were changed twice a week. Test compounds were ground in a mortar and pestle and diluted with enough vehicle to give a volume of 10 mL/kg of mouse weight. The oral doses were prepared in 0.5% hydroxyethylcellulose (Union Carbide Corp. WP 4400)/0.1% Tween-80 (Fisher Scientific T164-500). The amount of drug was calculated on the free base weight. The mice were infected intraperitoneally on day 0 with 5×10^4 erythrocytes parasitized with Plasmodium berghei (KBG-173 strain) from a donor mouse having a parasitemia between 5-10%. On days 3, 4 and 5 the test compounds were administered bid, spaced 6 hr apart, by oral gavage to the mice. Activity was measured by survival, with full activity defined as all animals living at day 31. Partial activity is defined as days of increased survival versus the infected non-treated controls. This in vivo model is a modification of the Thompson Test. For further description see Ager, A. L, Jr. Rodent Malaria Models. In Handbook of Experimental Pharmacology: Antimalarial Drugs. 1. 68/1; Peters, W., Richards, W. H. G., Eds.: Springer-Verlag: Berlin, 1984, pp. 231-33.

The next assay has as its system P. falciparum strain D6. The assay is described as follows: [3H]-hypoxanthine growth inhibition assay, P. falciparum D6. Type of assay: cell-based. To be noted: Plasmodium falciparum. As for the experimental part: (§1) The potential for antimalarial activity against Plasmodium falciparum was determined by measuring the incorporation of tritiated hypoxanthine into parasitized red blood cells.
(§2) Stock solutions of the test compounds and the reference drug chloroquine (CQ) (Sigma Chemicals C-6628, Lot #059H0919) were prepared in silanized glass vials with AquaSil™ (Pierce, USA) to minimize absorption of the compounds to glassware. All test compounds were dissolved in DMSO (Sigma Cat No. #D8418) to 1 mM concentration, whereas CQ was dissolved in 50% methanol at a concentration of 1.6 mg/ml (base). Stock solutions were stored at −20° C.
(§3) The P. falciparum laboratory adapted strains utilized in this project (Table 1) were in vitro cultured and routinely maintained in RPMI-1640-LPLF complete medium, which contained low concentrations of para-amino benzoic acid (0.0005 mg/L) and folic acid (0.01 mg/L).
(§4) The low concentration of folic acid in RPMI-1640-LPLF prevents inhibition of the compound if its activity targets the parasite's folate metabolic pathway. Parasites were cultured in human red blood cells (RBCs) in vitro at 37° C. in special gas mixture (5% O2, 5% CO2 and 90% N2) as described Trager and Jensen (1979 Science 193:673-675).
(§5) Base cultivation medium consisted of 10.4 g/L RPMI-1640-LPLF powder (Gibco BRL), 5.97 g/L HEPES buffer (MP Biomedicals, USA), 2.0 g/L D-glucose (BDH chemicals, Australia), 0.05 g/L hypoxanthine (Sigma, USA) and 40 mg/L gentamycin (Pfizer, Australia). The pH of the medium was adjusted to 6.9 and the solution was filtered using 0.2 μm pore size (AcroCap, Gelman Science, USA). Complete medium was prepared by adding sodium bicarbonate solution (final concentration, 0.21%) and drug-free heat-inactivated human plasma, pooled from various blood types, obtained from the Australian Red Cross Blood Service (Brisbane) (final concentration, 10%) to the base RPMI-1640-LPLF. For [^3H]-hypoxanthine inhibition growth assay, RPMI-1640-LPLF complete medium which lacked [^3H]-hypoxanthine ([^3H]-RPMI-1640-LPLF) was used to prevent uptake of hypoxanthine by parasites, as radioactive hypoxanthine uptake is measured as a surrogate marker of growth. All complete medium was used within three days of preparation. See DE (Para) SOP 002 for methodology.
(§6) Red blood cells (RBC) were required for P. falciparum parasites to proliferate in vitro. 0 (Rh+) type blood was obtained from the Australian Red Cross Blood Service. The RBC were washed twice in phosphate-buffered saline (PBS) and once in [^3H]-RPMI-1640-LPLF complete medium by centrifugation at 1,500×g for 5 min. Following the final wash, the haematocrit was measured as the percent of RBC to total culture volume. The haematocrit was adjusted to 50% by removing or adding [^3H]-RPMI-LPLF complete medium. See DE (Para) SOP 003 for methodology.
(§7) All P. falciparum strains were grown in RPMI-1640-LPLF complete medium at 4% haematocrit and 1% to 8% parasitaemia at 37° C. in sealed flasks in a gas mixture of 5% O2, 5% CO2 and 90% N2 (BOC Gases, Brisbane, Australia). For drug susceptibility assays cultures were routinely synchronized when the majority of parasites (>85%) were at early trophozoite (ring) stage. Synchronization involved removing the more mature erythrocytic parasite stages by lysis, resulting in the retention only of early trophozoite (ring) stages. Synchronization was performed by re-suspending the infected red blood cell (iRBC) pellet in 5 to 10 times its volume of 5% D-sorbitol (Bacto Laboratories Pty. Ltd., Australia) for 5 min (Lambros and Vanderberg, 1979 J Parasitol 65: 418-420). The mixture was centrifuged (1,500 rpm for 5 min) and the supernatant removed. The iRBC were washed twice using PBS buffer and once using [^3H]-RPMI-LPLF plain medium. Following synchronization, a new culture was prepared with an initial parasitaemia of 1% in RPMI-LPLF complete medium. See DE (Para) SOP 008 for methodology.

A further assay concerns P. falciparum strain W2. The assay is described as follows: [3H]-hypoxanthine growth inhibition assay, P. falciparum W2. The class given is cell-based. To be noted: Plasmodium falciparum. As for the experimental part:
as §1, §2, §3, §4, §5, §6, §7

[2] abbreviates: Plasmodium berghei, po, 744 h, read-out: Number of mice alive at day 31.
[3] abbreviates: P. falciparum D6 (sensitive to chloroquine and pyrimethamine), [3H]-hypoxanthine incorporation, read-out: D6 IC50.
Setting [4] is: P. falciparum W2 (resistant to chloroquine and pyrimethamine), [3H]-hypoxanthine incorporation, read-out: W2 IC50.

As to `CCN(CC)CCCC(C)Nc1ccnc2cc(Cl)ccc12` (stereo not drawn) [Chloroquine, chloroquine, reference compound], the “Average Days Survival” value is on record as 10.3 days in assay [1] (4 mg/kg/day oral), >18.8 days in assay [1] (16 mg/kg/day oral), >18.6 days in assay [1] (64 mg/kg/day oral) and >21.3 days in assay [1] (128 mg/kg/day oral). For the same molecule, the responders at 4 mg/kg in assay [1] (setting [2]) is 0%. In addition, in assay [1] (setting [2]), the responders at 16 mg/kg is 14.3%. Also, the responders at 64 mg/kg in assay [1] (setting [2]) was 28.6%. The responders at 128 mg/kg in assay [1] (setting [2]) was 57.1%. Moreover, the IC50 in the assay with P. falciparum strain D6 (D6, read-out: D6 IC50) was found to be 12 nM; in the assay on P. falciparum strain W2 (W2, read-out: W2 IC50), 133 nM.
`CC(C)(C)NCc1cc(C(C)(C)C)cc(-c2ccc(C(F)(F)F)nn2)c1O` [Example 56, 4-(tert-Butyl)-2-((tert-butylamino)methyl)-6-(6-(trifluoromethyl)pyridazin-3-yl)phenol hydrochloride]: the IC50 in the assay on P. falciparum strain D6 (setting [3]) was 104 nM; with P. falciparum strain W2 (setting [4]), 117 nM.
For `CC(C)(C)c1cc(CNCCC(F)(F)F)c(O)c(-c2ccc(C(F)(F)F)nc2)c1` [Example 57, 4-(tert-Butyl)-2-(6-(trifluoromethyl)pyridin-3-yl)-6-(((3,3,3-trifluoropropyl)amino)methyl)phenol hydrochloride] the same measures were 34 nM and 29 nM.
`CCN(CC)CCCC(C)NCc1cc(C(C)(C)C)cc(-c2ccc(C(F)(F)F)nc2)c1O` (stereo not drawn) [Example 59, 4-(tert-Butyl)-2-(((5-(diethylamino)pentan-2-yl)amino)methyl)-6-(6-(trifluoromethyl)pyridin-3-yl)phenol dihydrochloride]: the IC50 in the assay on P. falciparum strain D6 (D6, read-out: D6 IC50) was determined as 87 nM; in the assay on P. falciparum strain W2 (W2, read-out: W2 IC50), 97 nM.
On to `CC(C)(C)NCCCNCc1cc(C(C)(C)C)cc(-c2ccc(C(F)(F)F)nc2)c1O` [Example 60, 4-(tert-Butyl)-2-(((3-(tert-butylamino)propyl)amino)methyl)-6-(6-(trifluoromethyl)pyridin-3-yl)phenol dihydrochloride], for which the IC50 with P. falciparum strain D6 (D6, read-out: D6 IC50) worked out at 134 nM; in the assay on P. falciparum strain W2 (W2, read-out: W2 IC50) it was 175 nM.
On to `CCN(CC)CCCNCc1cc(C(C)(C)C)cc(-c2ccc(C(F)(F)F)nc2)c1O` [Example 61, 4-(tert-Butyl)-2-(((3-(diethylamino)propyl)amino)methyl)-6-(6-(trifluoromethyl)pyridin-3-yl)phenol dihydrochloride], for which the IC50 with P. falciparum strain D6 (D6, read-out: D6 IC50) was 44 nM; in the assay on P. falciparum strain W2 (W2, read-out: W2 IC50), 32 nM.
For `CC(C)(C)c1cc(CNCCCN)c(O)c(-c2ccc(C(F)(F)F)nc2)c1` [Example 62, 2-(((3-Aminopropyl)amino)methyl)-4-(tert-butyl)-6-(6-(trifluoromethyl)pyridin-3-yl)phenol dihydrochloride] the same measures were 133 nM and 223 nM.
Turning to `CCN(CC)CCNCc1cc(C(C)(C)C)cc(-c2ccc(C(F)(F)F)nc2)c1O` [Example 63, 4-(tert-Butyl)-2-(((2-(diethylamino)ethyl)amino)methyl)-6-(6-(trifluoromethyl)pyridin-3-yl)phenol dihydrochloride], the IC50 in the assay with P. falciparum strain D6 (D6, read-out: D6 IC50) was found to be 9 nM; in the assay on P. falciparum strain W2 (W2, read-out: W2 IC50) it was 7 nM.
Regarding `CC(C)(C)c1cc(CN)c(O)c(-c2ccc(C(F)(F)F)nc2)c1` [Example 64, 2-(Aminomethyl)-4-(tert-butyl)-6-(6-(trifluoromethyl)pyridin-3-yl)phenol hydrochloride], the IC50 in the assay on P. falciparum strain D6 (setting [3]) was 216 nM; in the assay on P. falciparum strain W2 (setting [4]), 202 nM.
Regarding `CC(CN)NCc1cc(C(C)(C)C)cc(-c2ccc(C(F)(F)F)nc2)c1O` (stereo not drawn) [Example 65, 2-(((1-Aminopropan-2-yl)amino)methyl)-4-(tert-butyl)-6-(6-(trifluoromethyl)pyridin-3-yl)phenol dihydrochloride], the IC50 was 394 nM with P. falciparum strain D6 (D6, read-out: D6 IC50) and 210 nM in the assay with P. falciparum strain W2 (W2, read-out: W2 IC50).
With `CC(C)(C)NCc1cc(-c2cccc(F)c2)cc(-c2ccc(C(F)(F)F)nc2)c1O` [Example 67, 3-((tert-Butylamino)methyl)-3′-fluoro-5-(6-(trifluoromethyl)pyridin-3-yl)-[1,1′-biphenyl]-4-ol hydrochloride], the IC50 in the assay with P. falciparum strain D6 (setting [3]) is 100 nM; in the assay with P. falciparum strain W2 (setting [4]) it was 53 nM.
For `CC(C)(C)NCc1cc(F)cc(-c2ccc(C(F)(F)F)nc2)c1O` [Example 68, 2-((tert-Butylamino)methyl)-4-fluoro-6-(6-(trifluoromethyl)pyridin-3-yl)phenol hydrochloride], the IC50 in the assay on P. falciparum strain D6 (setting [3]) is 221 nM; in the assay with P. falciparum strain W2 (setting [4]) it was 126 nM.
For `CC(C)(C)NCc1cc(Cl)cc(-c2ccc(C(F)(F)F)nc2)c1O` [Example 69, 2-((tert-Butylamino)methyl)-4-chloro-6-(6-(trifluoromethyl)pyridin-3-yl)phenol hydrochloride], the figures for the concentration for half-maximal inhibition (IC50) in the assay on P. falciparum strain D6 (setting [3]) and in the assay on P. falciparum strain W2 (setting [4]) were 239 nM and 130 nM, respectively.
`CC(C)(C)NCc1cc(C#N)cc(-c2ccc(C(F)(F)F)nc2)c1O` [Example 71, 3-((tert-Butylamino)methyl)-4-hydroxy-5-(6-(trifluoromethyl)pyridin-3-yl)benzonitrile hydrochloride]: the IC50 with P. falciparum strain D6 (setting [3]) amounted to 93100 nM; in the assay on P. falciparum strain W2 (setting [4]) it was 50700 nM.
Consider `CC(C)(C)NCc1cc(S(C)(=O)=O)cc(-c2ccc(C(F)(F)F)nc2)c1O` [Example 72, 2-((tert-Butylamino)methyl)-4-(methylsulfonyl)-6-(6-(trifluoromethyl)pyridin-3-yl)phenol hydrochloride], for which the IC50 in the assay with P. falciparum strain D6 (setting [3]) worked out at 125000 nM; in the assay on P. falciparum strain W2 (setting [4]) it was 81600 nM.
In the same order, the values of `CC(NC(C)(C)C)c1cc(C(C)(C)C)cc(-c2ccc(C(F)(F)F)nc2)c1O` (stereo not drawn) [Example 73, 4-(tert-Butyl)-2-(1-(tert-butylamino)ethyl)-6-(6-(trifluoromethyl)pyridin-3-yl)phenol hydrochloride] are 1860 nM and 2740 nM.
Take `CC(C)(C)NCc1cc(-c2ccc(Cl)cc2)nc(-c2ccc(C(F)(F)F)nc2)c1O` [Example 74, 4-((tert-Butylamino)methyl)-6-(4-chlorophenyl)-6′-(trifluoromethyl)-[2,3′-bipyridin]-3-ol 1.1hydrochloride]: the IC50 with P. falciparum strain D6 (setting [3]) was 54 nM; in the assay on P. falciparum strain W2 (setting [4]) it was 23 nM.

Broadly, the IC50 is the concentration at which inhibition is half-maximal.
